# Laboratory results published in the kinase profiling compilation of Christmann-Franck et al. (2016).
# What was measured:
# MAPK12 (human) = MAPK12 (human) (UniProt P53778)
# EPHB3 (human) = EPHB3 (human) (UniProt P54753)
# PIM3 (human) = PIM3 (human) (UniProt Q86V86)
# MAPK14 (human) = MAPK14 (human) (UniProt Q16539)
# DYRK1A (human) [1] = target: DYRK1A (human) (UniProt Q13627)
# PKN2 (human) = PKN2 (human) (UniProt Q16513)
# DYRK3 (human) = DYRK3 (human) (UniProt O43781)
# STK3 (human) = STK3 (human) (UniProt Q13188)
# STK3 (human), sequence (Q13188 whole entry, looked up): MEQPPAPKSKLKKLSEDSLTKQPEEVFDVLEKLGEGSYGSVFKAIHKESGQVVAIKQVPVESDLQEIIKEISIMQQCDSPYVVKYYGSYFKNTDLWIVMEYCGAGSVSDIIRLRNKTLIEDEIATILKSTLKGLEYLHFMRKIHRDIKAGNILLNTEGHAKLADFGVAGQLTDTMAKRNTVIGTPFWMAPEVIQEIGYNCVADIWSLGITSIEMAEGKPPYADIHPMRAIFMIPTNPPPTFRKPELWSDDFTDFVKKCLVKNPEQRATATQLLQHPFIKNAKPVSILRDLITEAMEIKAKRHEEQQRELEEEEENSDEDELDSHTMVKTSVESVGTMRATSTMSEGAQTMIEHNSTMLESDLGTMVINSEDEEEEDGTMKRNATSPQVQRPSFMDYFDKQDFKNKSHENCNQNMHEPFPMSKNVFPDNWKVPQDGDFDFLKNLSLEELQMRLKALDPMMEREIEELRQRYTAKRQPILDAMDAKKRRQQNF
# FGFR1 (human) = FGFR1 (human) (UniProt P11362); experiment: KINOMEscan competition binding; details: compound 10.0 µM
# CAMK2A (human) = CAMK2A (human) (UniProt Q9UQM7); experiment: KINOMEscan competition binding; details: compound 10.0 µM
# STK35 (human) = STK35 (human) (UniProt Q8TDR2); experiment: KINOMEscan competition binding; details: compound 10.0 µM
# NEK7 (human) = NEK7 (human) (UniProt Q8TDX7); experiment: KINOMEscan competition binding; details: compound 10.0 µM
# PRKAA1 (human) = PRKAA1 (human) (UniProt Q13131); experiment: KINOMEscan competition binding; details: compound 10.0 µM
# NEK1 (human) = NEK1 (human) (UniProt Q96PY6); experiment: KINOMEscan competition binding; details: compound 10.0 µM
# TTK (human) = TTK (human) (UniProt P33981); experiment: KINOMEscan competition binding; details: compound 10.0 µM
# [2] = system: KIT (human), P10721 [V559D/T670I]; experiment: KINOMEscan competition binding; details: compound 10.0 µM
# PHKG1 (human) = PHKG1 (human) (UniProt Q16816); experiment: KINOMEscan competition binding; details: compound 10.0 µM
# FLT3 (human) = FLT3 (human) (UniProt P36888); experiment: KINOMEscan competition binding; details: compound 10.0 µM
# PRKACB (human) = PRKACB (human) (UniProt P22694); experiment: KINOMEscan competition binding; details: compound 10.0 µM
# RPS6KA3 KD1 (human) = RPS6KA3 KD1 (human) (UniProt P51812); experiment: KINOMEscan competition binding; details: compound 10.0 µM
# AKT2 (human) = AKT2 (human) (UniProt P31751); experiment: KINOMEscan competition binding; details: compound 10.0 µM
# AKT2 (human), sequence (P31751 whole entry, looked up): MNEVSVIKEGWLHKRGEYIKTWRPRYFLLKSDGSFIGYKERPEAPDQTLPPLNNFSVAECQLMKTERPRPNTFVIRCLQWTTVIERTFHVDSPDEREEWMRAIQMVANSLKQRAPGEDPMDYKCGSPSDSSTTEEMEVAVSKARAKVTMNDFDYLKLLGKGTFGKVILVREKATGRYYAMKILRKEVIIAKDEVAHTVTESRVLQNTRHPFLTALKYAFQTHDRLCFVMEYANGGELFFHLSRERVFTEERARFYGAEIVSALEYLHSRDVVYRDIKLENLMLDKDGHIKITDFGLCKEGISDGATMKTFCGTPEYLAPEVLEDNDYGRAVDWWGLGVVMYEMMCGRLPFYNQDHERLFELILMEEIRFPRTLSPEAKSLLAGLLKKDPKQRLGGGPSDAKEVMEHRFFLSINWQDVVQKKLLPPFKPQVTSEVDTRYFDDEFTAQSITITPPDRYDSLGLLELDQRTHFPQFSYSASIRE
# IKBKE (human) = IKBKE (human) (UniProt Q14164); experiment: KINOMEscan competition binding; details: compound 10.0 µM
# [3] = system: FLT3 (human), P36888 [D835Y]; experiment: KINOMEscan competition binding; details: compound 10.0 µM
# MAP4K2 (human) = MAP4K2 (human) (UniProt Q12851); experiment: KINOMEscan competition binding; details: compound 10.0 µM
# [4] = system: FLT3 (human), P36888 [K663Q]; experiment: KINOMEscan competition binding; details: compound 10.0 µM
# MAP2K2 (human) = MAP2K2 (human) (UniProt P36507); experiment: KINOMEscan competition binding; details: compound 10.0 µM
# MAP4K5 (human) = MAP4K5 (human) (UniProt Q9Y4K4); experiment: KINOMEscan competition binding; details: compound 10.0 µM
# PDPK1 (human) = PDPK1 (human) (UniProt O15530); experiment: KINOMEscan competition binding; details: compound 10.0 µM
# MAPK11 (human) = MAPK11 (human) (UniProt Q15759); experiment: KINOMEscan competition binding; details: compound 10.0 µM
# MAPK11 (human), sequence (Q15759 whole entry, looked up): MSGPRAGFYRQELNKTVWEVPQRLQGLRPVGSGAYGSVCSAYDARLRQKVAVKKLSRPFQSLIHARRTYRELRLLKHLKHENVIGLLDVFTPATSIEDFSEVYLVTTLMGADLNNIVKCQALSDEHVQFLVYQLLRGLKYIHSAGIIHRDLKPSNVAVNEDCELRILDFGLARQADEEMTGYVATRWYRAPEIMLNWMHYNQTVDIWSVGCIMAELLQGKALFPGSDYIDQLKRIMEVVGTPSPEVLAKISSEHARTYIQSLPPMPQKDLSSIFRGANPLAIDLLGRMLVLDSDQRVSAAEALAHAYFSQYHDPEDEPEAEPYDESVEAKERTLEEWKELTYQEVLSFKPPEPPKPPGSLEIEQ
# CSF1R (human) = CSF1R (human) (UniProt P07333); experiment: KINOMEscan competition binding; details: compound 10.0 µM
# MARK4 (human) = MARK4 (human) (UniProt Q96L34); experiment: KINOMEscan competition binding; details: compound 10.0 µM
# DYRK1A (human) [5] = target: DYRK1A (human) (UniProt Q13627); experiment: KINOMEscan competition binding; details: compound 10.0 µM
# [6] = system: FLT3 (human), P36888 [N841I]; experiment: KINOMEscan competition binding; details: compound 10.0 µM
# ULK1 (human) = ULK1 (human) (UniProt O75385); experiment: KINOMEscan competition binding; details: compound 10.0 µM
# RPS6KA4 KD1 (human) = RPS6KA4 KD1 (human) (UniProt O75676); experiment: KINOMEscan competition binding; details: compound 10.0 µM
# LTK (human) = LTK (human) (UniProt P29376); experiment: KINOMEscan competition binding; details: compound 10.0 µM
# EPHB6 (human) = EPHB6 (human) (UniProt O15197); experiment: KINOMEscan competition binding; details: compound 10.0 µM
# MYLK4 (human) = MYLK4 (human) (UniProt Q86YV6); experiment: KINOMEscan competition binding; details: compound 10.0 µM
# PIM2 (human) = PIM2 (human) (UniProt Q9P1W9); experiment: KINOMEscan competition binding; details: compound 10.0 µM
# PKN2 (human), sequence (Q16513 whole entry, looked up): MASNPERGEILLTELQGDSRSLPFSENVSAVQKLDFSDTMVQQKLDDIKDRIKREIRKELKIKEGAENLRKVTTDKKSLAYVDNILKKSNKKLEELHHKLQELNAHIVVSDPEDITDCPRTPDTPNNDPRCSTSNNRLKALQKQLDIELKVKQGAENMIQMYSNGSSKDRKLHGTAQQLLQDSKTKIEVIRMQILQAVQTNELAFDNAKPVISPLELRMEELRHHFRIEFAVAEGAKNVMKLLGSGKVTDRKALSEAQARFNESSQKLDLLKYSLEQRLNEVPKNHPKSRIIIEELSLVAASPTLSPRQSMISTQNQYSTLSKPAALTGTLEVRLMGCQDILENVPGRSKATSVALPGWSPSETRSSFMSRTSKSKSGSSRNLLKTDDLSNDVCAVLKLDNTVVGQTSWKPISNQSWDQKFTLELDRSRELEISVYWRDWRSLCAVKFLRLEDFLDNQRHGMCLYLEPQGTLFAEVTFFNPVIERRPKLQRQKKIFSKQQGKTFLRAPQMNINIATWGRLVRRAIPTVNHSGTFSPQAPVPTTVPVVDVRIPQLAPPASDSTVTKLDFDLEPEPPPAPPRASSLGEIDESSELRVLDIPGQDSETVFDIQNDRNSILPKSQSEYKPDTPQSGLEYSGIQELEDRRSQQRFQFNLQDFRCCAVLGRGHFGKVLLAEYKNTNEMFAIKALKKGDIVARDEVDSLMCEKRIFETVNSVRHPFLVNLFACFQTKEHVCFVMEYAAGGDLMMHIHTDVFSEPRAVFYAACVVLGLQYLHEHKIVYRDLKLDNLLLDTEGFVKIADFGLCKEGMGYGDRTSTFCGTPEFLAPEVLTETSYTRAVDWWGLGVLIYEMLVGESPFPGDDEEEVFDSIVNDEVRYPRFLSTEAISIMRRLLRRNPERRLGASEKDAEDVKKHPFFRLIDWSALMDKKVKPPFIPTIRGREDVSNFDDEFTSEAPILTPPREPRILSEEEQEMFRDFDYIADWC
# DYRK3 (human), sequence (O43781 whole entry, looked up): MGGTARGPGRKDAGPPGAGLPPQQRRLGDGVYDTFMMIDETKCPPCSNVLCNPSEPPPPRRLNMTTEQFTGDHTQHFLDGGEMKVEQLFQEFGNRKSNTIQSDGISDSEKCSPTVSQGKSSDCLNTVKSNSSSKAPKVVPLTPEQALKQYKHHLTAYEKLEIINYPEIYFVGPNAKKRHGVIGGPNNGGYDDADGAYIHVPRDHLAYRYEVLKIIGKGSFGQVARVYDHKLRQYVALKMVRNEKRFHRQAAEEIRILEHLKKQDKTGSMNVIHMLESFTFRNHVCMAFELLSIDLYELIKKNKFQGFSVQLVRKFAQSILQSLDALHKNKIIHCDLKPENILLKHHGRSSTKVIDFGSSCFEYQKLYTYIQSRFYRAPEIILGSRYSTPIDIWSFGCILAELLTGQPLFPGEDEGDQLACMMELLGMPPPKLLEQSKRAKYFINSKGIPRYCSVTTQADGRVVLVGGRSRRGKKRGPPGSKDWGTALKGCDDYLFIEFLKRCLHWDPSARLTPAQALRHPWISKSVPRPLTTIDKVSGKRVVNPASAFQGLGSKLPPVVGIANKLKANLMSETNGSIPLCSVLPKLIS
# MAPK12 (human), sequence (P53778 whole entry, looked up): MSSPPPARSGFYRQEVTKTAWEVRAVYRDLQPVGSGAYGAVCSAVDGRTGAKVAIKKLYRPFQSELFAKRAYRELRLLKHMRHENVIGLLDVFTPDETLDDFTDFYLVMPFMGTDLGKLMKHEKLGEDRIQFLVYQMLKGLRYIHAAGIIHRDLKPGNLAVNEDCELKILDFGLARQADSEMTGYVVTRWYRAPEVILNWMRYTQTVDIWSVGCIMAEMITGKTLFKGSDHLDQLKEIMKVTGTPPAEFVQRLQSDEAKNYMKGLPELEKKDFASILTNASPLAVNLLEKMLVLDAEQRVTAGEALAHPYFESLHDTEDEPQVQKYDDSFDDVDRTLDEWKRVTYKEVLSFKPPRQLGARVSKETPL
# EPHB3 (human), sequence (P54753 whole entry, looked up): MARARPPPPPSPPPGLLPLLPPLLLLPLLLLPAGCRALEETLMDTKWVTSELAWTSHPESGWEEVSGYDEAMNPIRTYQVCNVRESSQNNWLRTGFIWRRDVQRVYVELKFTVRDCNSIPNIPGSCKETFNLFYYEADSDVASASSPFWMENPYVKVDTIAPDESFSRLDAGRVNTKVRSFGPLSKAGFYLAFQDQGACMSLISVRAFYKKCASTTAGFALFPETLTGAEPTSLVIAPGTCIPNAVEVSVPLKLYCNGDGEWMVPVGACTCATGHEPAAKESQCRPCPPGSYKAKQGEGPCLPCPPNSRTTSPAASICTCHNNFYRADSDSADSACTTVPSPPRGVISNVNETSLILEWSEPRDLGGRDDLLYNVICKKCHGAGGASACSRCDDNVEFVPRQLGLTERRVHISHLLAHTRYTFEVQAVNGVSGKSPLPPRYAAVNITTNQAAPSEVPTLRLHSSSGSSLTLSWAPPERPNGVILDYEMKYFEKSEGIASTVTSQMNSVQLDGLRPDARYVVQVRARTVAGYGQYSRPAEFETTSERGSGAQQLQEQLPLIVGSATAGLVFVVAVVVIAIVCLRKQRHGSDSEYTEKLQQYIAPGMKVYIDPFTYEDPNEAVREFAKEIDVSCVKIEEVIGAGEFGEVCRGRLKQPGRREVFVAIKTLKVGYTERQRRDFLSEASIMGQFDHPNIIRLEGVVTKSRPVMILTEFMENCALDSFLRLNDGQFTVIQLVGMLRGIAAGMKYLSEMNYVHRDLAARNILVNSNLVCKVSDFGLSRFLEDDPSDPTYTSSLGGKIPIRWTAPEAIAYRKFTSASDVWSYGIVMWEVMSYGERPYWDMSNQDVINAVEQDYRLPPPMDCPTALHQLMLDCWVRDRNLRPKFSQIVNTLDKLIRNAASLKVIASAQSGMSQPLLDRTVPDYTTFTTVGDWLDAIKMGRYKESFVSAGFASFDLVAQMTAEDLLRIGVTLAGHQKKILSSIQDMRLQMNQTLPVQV
# MAPK14 (human), sequence (Q16539 whole entry, looked up): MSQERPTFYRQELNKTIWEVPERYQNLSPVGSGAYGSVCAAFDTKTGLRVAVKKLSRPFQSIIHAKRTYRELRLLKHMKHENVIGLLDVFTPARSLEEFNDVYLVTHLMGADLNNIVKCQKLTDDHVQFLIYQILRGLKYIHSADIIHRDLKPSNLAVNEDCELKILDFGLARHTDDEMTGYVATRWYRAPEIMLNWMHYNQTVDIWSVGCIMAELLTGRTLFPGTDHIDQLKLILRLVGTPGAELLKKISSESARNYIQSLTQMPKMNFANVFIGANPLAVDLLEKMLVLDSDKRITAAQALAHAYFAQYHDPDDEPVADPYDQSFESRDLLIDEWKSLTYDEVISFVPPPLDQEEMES
compound,measurement,setting,value
COc1ccc(-c2ccc3c(N4CCOCC4)nc(N4C[C@@H](C)O[C@@H](C)C4)nc3n2)cc1CO,per cent of control,MAPK12 (human); compound 1.0 µM,89%
same,per cent of control,MAPK12 (human); compound 10.0 µM,91%
same,per cent of control,EPHB3 (human); compound 1.0 µM,100%
same,per cent of control,EPHB3 (human); compound 10.0 µM,78%
same,per cent of control,PIM3 (human); compound 1.0 µM,114%
same,per cent of control,PIM3 (human); compound 10.0 µM,75%
same,per cent of control,MAPK14 (human); compound 1.0 µM,101%
same,per cent of control,MAPK14 (human); compound 10.0 µM,96%
same,per cent of control,DYRK1A (human) [1]; compound 1.0 µM,94%
same,per cent of control,DYRK1A (human) [1]; compound 10.0 µM,80%
same,per cent of control,PKN2 (human); compound 1.0 µM,95%
same,per cent of control,PKN2 (human); compound 10.0 µM,105%
same,per cent of control,DYRK3 (human); compound 1.0 µM,88%
same,per cent of control,DYRK3 (human); compound 10.0 µM,84%
same,per cent of control,STK3 (human); compound 1.0 µM,81%
same,per cent of control,STK3 (human); compound 10.0 µM,102%
same,"kinase still bound, per cent of control",FGFR1 (human),100%
same,"kinase still bound, per cent of control",CAMK2A (human),87%
same,"kinase still bound, per cent of control",STK35 (human),96%
same,"kinase still bound, per cent of control",NEK7 (human),100%
same,"kinase still bound, per cent of control",PRKAA1 (human),97%
same,"kinase still bound, per cent of control",NEK1 (human),100%
same,"kinase still bound, per cent of control",TTK (human),95%
same,"kinase still bound, per cent of control",[2],80%
same,"kinase still bound, per cent of control",PHKG1 (human),93%
same,"kinase still bound, per cent of control",FLT3 (human),71%
same,per cent of control,PRKACB (human),96%
same,"kinase still bound, per cent of control",RPS6KA3 KD1 (human),99%
same,"kinase still bound, per cent of control",AKT2 (human),83%
same,"kinase still bound, per cent of control",IKBKE (human),100%
same,"kinase still bound, per cent of control",[3],86%
same,"kinase still bound, per cent of control",MAP4K2 (human),86%
same,"kinase still bound, per cent of control",[4],96%
same,"kinase still bound, per cent of control",MAP2K2 (human),92%
same,"kinase still bound, per cent of control",MAP4K5 (human),96%
same,"kinase still bound, per cent of control",PDPK1 (human),100%
same,"kinase still bound, per cent of control",MAPK11 (human),98%
same,"kinase still bound, per cent of control",CSF1R (human),90%
same,"kinase still bound, per cent of control",MARK4 (human),84%
same,"kinase still bound, per cent of control",DYRK1A (human) [5],94%
same,"kinase still bound, per cent of control",[6],82%
same,"kinase still bound, per cent of control",ULK1 (human),79%
same,"kinase still bound, per cent of control",RPS6KA4 KD1 (human),96%
same,"kinase still bound, per cent of control",LTK (human),96%
same,"kinase still bound, per cent of control",EPHB6 (human),83%
same,"kinase still bound, per cent of control",MYLK4 (human),92%
same,"kinase still bound, per cent of control",PIM2 (human),100%
